Data on 1 molecule can be found in patent US10766873B2, “Zuclopenthixol hydrochloride derivatives and Ebselen derivatives as ErbB2 inhibitors” (Centre National de la Recherche Scientifique (CNRS), priority 2016, dated 2020).

One data set deals with SKBR3. The data set can be described thus: MTT cell proliferation, SKBR3. The class given is cell-based, human. On the procedure:
(§1) We then analyzed the ability of ZU and EB1 and their derivatives to decrease the ErbB2-dependent cell proliferation.
(§2) SKBR3, BT474, MCF-7, MDA-MB-231 and HBMEC cells were treated with the compounds as indicated, and cell proliferation was determined each day during 3 days using an MTT assay. Non treated cells were included as a negative control.
A solution of ZU in cis conformation was mixed to a solution of ZU in trans conformation (1:1) to obtain ZU in a 50/50 cis/trans conformation and their respective effects on ErbB2 activation and ErbB2-dependent cell proliferation were analyzed as previously by dot blot analysis using an anti-phosphotyrosine antibody (clone 4G10) and by MTT assays in the ErbB2-overexpressing breast cancer cell line SKBR3, BT474, or HBMEC as a control.

The target of the next data set is T1, V842I ErbB2 (Homo sapiens, UniProt P04626, V842I).
T1 construct: expressed in transfected cells; host or cells: HBMEC
The data set can be described thus: Western blot pY1248, V842I ErbB2 in transfected HBMECs. The class given is cell-based. The settings on record: 0, 5, 10 or 20 μM, 48 h. On the procedure:
(§3) HBMECs cells were transfected with plasmids encoding WT, V777L or V842I and treated with 0, 5, 10 or 20 μM ZU or EB1 for 48 h. ErbB2 activation was then analyzed by western blot analysis using a phospho-ErbB2-specific antibody (pY1248) and a total ErbB2 antibody. Histograms show optical density quantification.

In the next data set the target is ErbB2 (Homo sapiens, UniProt P04626). Briefly: ErbB2 activation in N87 cells, dot blot (4G10). The format is cell-based. The arrangement: endogenous in cells; host or cells: N87. On the procedure: The phosphotyrosine content in the ErbB2-overexpressing gastric cancer cell line N87 was analyzed by dot blot using an anti-phosphotyrosine antibody (clone 4G10). As in these cells, ErbB2 is the main phosphorylated protein, decreased in total phosphotyrosine content mainly reflected inhibition of ErbB2 activity. As a control, the non-specific ErbB2 kinase inhibitor AG1478 was used. Quantifications show the result of two independent experiments.

The target of data set [1] is T2, FERM/ErbB2 interaction (Ezrin FERM domain / juxtamembrane ErbB2 peptide) (Homo sapiens, UniProt P04626).
T2 construct: made in house
The data set can be described thus: AlphaScreen competition assay, FERM/ErbB2 interaction. The class given is binding. The settings on record: 1 h. From the text: (§4) To validate that the Zuclopenthixol hydrochloride (ZU) and its derivatives interact with the juxtamembrane domain of ErbB2, we first analyzed in AlphaScreen® their efficiency to inhibit FERM/ErbB2 interaction in a dose-dependent manner and determined IC50 value. Furthermore, to test the selectivity of those compounds, we tested their ability to disrupt the interaction between the FERM domain and the known ERM binding motif contained in the juxtamembrane region of CD44 as a control.
AlphaScreen® technology was used to assess the interaction between the Ezrin binding motif (EBM) contained in the juxtamembrane portions of ErbB2 or CD44 with the Ezrin FERM domain. For this purpose the Ezrin FERM domain in fusion with Glutathione-S-Transferase (GST) has been coupled to GSH-coated acceptor beads. […] The AlphaScreen® reagents (Glutathione-coated Acceptor beads and streptavidin-coated Donor beads) were obtained from PerkinElmer.
The reaction was performed using white 384-well Optiplates (PerkinElmer, Whalham, Mass., USA) in 20 μl (total reaction volume) in a reaction buffer containing PBS, pH 7.4, 5 mM MgCl2 and 0.02% CHAPS. […] 10 μl of a mix solution containing 20 μg/ml Glutathione-coated Acceptor beads and 20 μg/ml streptavidin-coated Donor beads was then added to the wells and incubation was further proceeded for 40 min or overnight in the dark and at room temperature. Light signal was detected with the EnVision® multilabel plate reader (PerkinElmer). All experiments involving AlphaScreen® beads were performed under subdued lighting.
For orientation: Alpha assays give light when donor and acceptor beads are brought close together.

The target in a further data set is T3, FERM/CD44 interaction (Homo sapiens, UniProt P16070).
T3 construct: the juxtamembrane region of CD44 (biotin-[…]); made in house
Briefly: AlphaScreen counter screen, FERM/CD44 interaction. The class given is binding. The settings on record: 1 h.
From the text: as §4
AlphaScreen® technology was used to assess the interaction between the Ezrin binding motif (EBM) contained in the juxtamembrane portions of ErbB2 or CD44 with the Ezrin FERM domain. For this purpose the Ezrin FERM domain in fusion with Glutathione-S-Transferase (GST) has been coupled to GSH-coated acceptor beads. Biotinylated ErbB2 peptide encoding the Ezrin binding motif (amino acid 674 to 689: biotin-[…], 26 aa) or the juxtamembrane region of CD44 (biotin-[…]), for the counter screen have been synthesized and coupled to streptavidin-covered donor beads. […]
The reaction was performed using white 384-well Optiplates (PerkinElmer, Whalham, Mass., USA) in 20 μl (total reaction volume) in a reaction buffer containing PBS, pH 7.4, 5 mM MgCl2 and 0.02% CHAPS. […] Light signal was detected with the EnVision® multilabel plate reader (PerkinElmer). […]

In a further data set the target is T4, WT ErbB2 (Homo sapiens, UniProt P04626).
T4 construct: expressed in transfected cells; host or cells: HBMEC
Briefly: Western blot pY1248, WT ErbB2 in transfected HBMECs. The format is cell-based. As to conditions: 0, 5, 10 or 20 μM, 48 h. On the procedure:
HBMECs cells were transfected with plasmids encoding WT, ΔEBM (a form of ErbB2 carrying mutations in the juxtamembrane domain and unable to bind to the Ezrin FERM domain), V659E or p95 ErbB2 and treated with 0, 5, 10 or 20 μM ZU for 24 h. ErbB2 activation was then analyzed by western blot analysis using a phospho-ErbB2-specific antibody (pY1248) and a tubulin antibody as a loading control. Histograms show optical density quantification.
as §3
A general note: A western blot detects proteins with antibodies after separation by electrophoresis.

The test system of the next data set is HBMEC. The data set can be described thus: MTT cell proliferation, HBMEC control cells. The class given is cell-based, human. On the procedure: as §1, §2
The WT, V777L or V842I ErbB2-transfected cells were treated with 5 or 10 μM of ZU and cell proliferation was determined each day during 3 days using an MTT assay. Non transfected cells were included as a negative control.
The WT, V777L or V842I ErbB2-transfected cells were treated with 5 or 10 μM of EB1 and cell proliferation was determined each day during 3 days using an MTT assay. Non transfected cells were included as a negative control.

In the case of `O=C1c2ccccc2[Se](=O)N1c1ccccc1` (stereo not drawn) [EB1, Ebselen oxide], the IC50 (as a rule, the midpoint of a concentration-inhibition curve) in the data set on SKBR3 (Homo sapiens, SK-BR-3) stood at 7.5 µM. Moreover, the EC50 in the data set with SKBR3 (Homo sapiens, SK-BR-3, 72 h, day 3, read-out: Cell proliferation at d 3 SKBR3 EC50) stood at 7.4 µM; in the data set on HBMEC (Homo sapiens, 72 h, read-out: Cell proliferation at d 3 HBMEC EC50, μM), 99.2 µM. In the data set with SKBR3 (day 3), the “Cell proliferation at d 3 SKBR3 Max inhibition, %” value is listed as 96.7%. Also, the “ErbB2 V842I activation (in words)” value at V842I ErbB2 is “potently decrease”. The “ErbB2 activation in N87 cell line (in words)” value on ErbB2 is reported as “potently decrease ErbB2 activation”. Also, the “inhibition of FERM/ErbB2 interaction” value in data set [1] turned out to be 43%. For the same molecule, at FERM/CD44 interaction, the “effect on FERM/CD44 interaction” value is recorded as “without significantly altering FERM/CD44 interaction at low doses”. Besides, the “ErbB2 WT activation (in words)” value on WT ErbB2 is reported as “potently decrease”. In addition, the “effect on HBMEC proliferation (in words)” value in the data set with HBMEC (10 μM) was “without any effect”. Besides, the “effect on proliferation of non-transfected HBMECs cells (in words)” value in the data set on HBMEC (10 μM, day 3) is reported as “no effect”. Also, in the data set on HBMEC (day 3), the “Cell proliferation at d 3 HBMEC Max inhibition, %” value is 94.4%.
